Data from ChEMBL document CHEMBL1201862, “PubChem BioAssay data set” (2004).
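1) Cells in 96-well plates. 2) Compound, 48 h, 5 concentrations. 3) Linear interpolation between surrounding doses. 4) Unreached endpoint = highest concentration. GI50 is the concentration that inhibits growth by half.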 Active and inactive are the calls of the source. Cut-off read from the data, not from the text of the source: active = GI50 up to about 1.1 µM and inactive = higher.

Tests used:
Experiment in all cases: growth of human tumour cells (NCI), 48 h
[1] = tested on: 786-0
[2] = tested on: COLO 205
[3] = tested on: DU-145
[4] = tested on: HCT-116
[5] = tested on: HCT-15
[6] = tested on: KM12
[7] = tested on: LOX IMVI
[8] = tested on: M14
[9] = tested on: Malme-3M
[10] = tested on: NCI-H23
[11] = tested on: NCI-H522
[12] = tested on: SF-295
[13] = tested on: SK-MEL-28
[14] = tested on: SK-OV-3
[15] = tested on: SNB-19
[16] = tested on: T47D
[17] = tested on: TK-10
[18] = tested on: UO-31
[19] = tested on: OVCAR-5
[20] = tested on: OVCAR-3

SMILES	GI50 [1]	GI50 [2]	GI50 [3]	GI50 [4]	GI50 [5]	GI50 [6]	GI50 [7]	GI50 [8]	GI50 [9]	GI50 [10]	GI50 [11]	GI50 [12]	GI50 [13]	GI50 [14]	GI50 [15]	GI50 [16]	GI50 [17]	GI50 [18]	GI50 [19]	GI50 [20]
COC(=O)C1(O)C(c2ccccc2)NC2(C)CCCC21 (configuration not stated)	> 100 µM (inactive)	> 100 µM (inactive)	> 100 µM (inactive)	> 100 µM (inactive)	> 100 µM	> 100 µM (inactive)	> 100 µM (inactive)	> 100 µM (inactive)	> 100 µM (inactive)	> 100 µM (inactive)	> 100 µM (inactive)	> 100 µM (inactive)	> 100 µM (inactive)	> 100 µM (inactive)	> 100 µM (inactive)	> 100 µM (inactive)	> 100 µM (inactive)	> 100 µM (inactive)	–	–
COc1c(-c2nc3ccc(N4CCN(C)CC4)nc3[nH]2)cc(OC)c2[nH]c(COC(C)=O)nc12	22.8 µM (inactive)	28.7 µM (inactive)	29 µM (inactive)	20 µM (inactive)	46 µM	23.9 µM (inactive)	25.9 µM (inactive)	19.5 µM (inactive)	28.1 µM (inactive)	32.2 µM (inactive)	37.1 µM (inactive)	34.4 µM (inactive)	49.1 µM (inactive)	14.5 µM (inactive)	28.1 µM (inactive)	22.5 µM (inactive)	38.5 µM (inactive)	30.7 µM (inactive)	55.7 µM (inactive)	–
Cc1ccc(C(=O)NN=C(/N=N/c2cccc(C)c2)c2ccc(N(C)C)cc2)cc1	> 100 µM (inactive)	> 100 µM (inactive)	28.4 µM (inactive)	> 100 µM (inactive)	> 100 µM	> 100 µM (inactive)	> 100 µM (inactive)	> 100 µM (inactive)	–	> 100 µM (inactive)	> 100 µM (inactive)	> 100 µM (inactive)	> 100 µM (inactive)	64 µM (inactive)	> 100 µM (inactive)	2.82 µM (inactive)	> 100 µM (inactive)	> 100 µM (inactive)	> 100 µM (inactive)	> 100 µM (inactive)
COC(=O)C1=C(O)c2ccc(Cl)cc2S(=O)(=O)N1C	> 100 µM (inactive)	> 100 µM (inactive)	> 100 µM (inactive)	> 100 µM (inactive)	45.1 µM	> 100 µM (inactive)	> 100 µM (inactive)	51.1 µM (inactive)	77.6 µM (inactive)	58.9 µM (inactive)	34.8 µM (inactive)	60.5 µM (inactive)	> 100 µM (inactive)	> 100 µM (inactive)	60.4 µM (inactive)	> 100 µM (inactive)	> 100 µM (inactive)	> 10 µM (inactive)	> 100 µM (inactive)	–
CC(C)(C)[Si](C)(C)OCC1OC(n2cc(F)c(=O)[nH]c2=O)CC1O[Si](C)(C)C(C)(C)C (configuration not stated)	8.63 µM (inactive)	4.25 µM (inactive)	3.46 µM (inactive)	7.66 µM (inactive)	7.24 µM	4.19 µM (inactive)	5.79 µM (inactive)	13.3 µM (inactive)	16.4 µM (inactive)	6.53 µM (inactive)	3.29 µM (inactive)	6.97 µM (inactive)	–	14 µM (inactive)	12.4 µM (inactive)	1.11 µM (active)	2.84 µM (inactive)	10.8 µM (inactive)	17 µM (inactive)	15.2 µM (inactive)
CCCCCC(=O)OCC1(CO)C/C(=C/CC(C(C)C)C(C)C)C(=O)O1 (configuration not stated)	30.8 µM (inactive)	26.5 µM (inactive)	59.6 µM (inactive)	27.7 µM (inactive)	73.1 µM	13.5 µM (inactive)	10.6 µM (inactive)	–	24.3 µM (inactive)	> 75 µM (inactive)	13.7 µM (inactive)	51.1 µM (inactive)	> 75 µM (inactive)	> 75 µM (inactive)	63.1 µM (inactive)	52.6 µM (inactive)	> 75 µM (inactive)	17.2 µM (inactive)	> 75 µM (inactive)	50 µM (inactive)
Oc1c(Cl)c(Cl)c(Cl)c(Cl)c1Cl [PENTACHLOROPHENOL]	21 µM (inactive)	31 µM (inactive)	21.4 µM (inactive)	17.4 µM (inactive)	19.5 µM	19.5 µM (inactive)	17.9 µM (inactive)	20.9 µM (inactive)	–	21.8 µM (inactive)	24 µM (inactive)	17.2 µM (inactive)	24 µM (inactive)	45.6 µM (inactive)	30.3 µM (inactive)	20 µM (inactive)	> 100 µM (inactive)	17 µM (inactive)	18.4 µM (inactive)	18.7 µM (inactive)
